Test system: patient derived xenografts (PDX) from localized breast cancer tumors
Test: Drug response of breast cancer patient derived xenografts (complete vs non/incomplete response)
Assay type: in vivo
Conditions: breast cancer PDX library; AC tested on 37 PDXs, Olaparib on 33 PDXs
Description: A library of 37 patient derived xenografts (PDX) from localized breast cancer tumors were assayed using RNA-seq to determine gene expression profiles and Exome-seq to detect somatic mutations. AC (a combination of the chemotherapies Adriamycin (doxorubicin) and cyclophosphamide) was tested on the 37 PDXs, and 33 were also treated using Olaparib (a PARP inhibitor). The responses of the PDX to the treatments are categorized into Complete Response and non/incomplete response. […] Thus, the complete response to Olaparib results in 28 False and 5 True samples. The complete response to AC results in 26 False and 11 True samples.

In the case of `O=C(c1cc(Cc2n[nH]c(=O)c3ccccc23)ccc1F)N1CCN(C(=O)C2CC2)CC1` [Olaparib], the “samples showing a complete response” value is reported as 5 samples and the “samples showing non- or partial responses” value is reported as 28 samples.

Reference: patent publication US12603148B2, “Method for analysis of omics data” (Max-Delbrück-Centrum für Molekulare Medizin in der …, priority 2021, dated 2026)
